Inconclusive results are not listed. Active and inactive are the calls of the source.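 How the source made its calls: active means fitted activation curve crossing 40% at a concentration no higher than the sample's top valid tested dose; inconclusive means flat fitted curve at 30% to 70% activation, or poor curve fit; inactive means signal decrease, flat curve within 30%, or the rest.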
System: NIH3T3-HGL HSF-1 response element luciferase, 48 h
Test: sustained heat shock response element induction – cell-based, mouse, luciferase, cherry-pick, dose, confirmation (AID 602296);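 further: test compounds applied by themselves with no MG132 co-treatment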

Row | SMILES | AC40
1 | COc1ccc(-c2nc(C#N)c(N3CCCCC3)o2)cc1 | > 26 µM (inactive)
2 | O=C(O)CC12C[C@H]3C[C@@H](C1)CC(n1ncc(N4CCN(c5ccccc5)CC4)c(Cl)c1=O)(C3)C2 | > 26 µM (inactive)
3 | Cc1ccc(N2C(=O)CCC2(C#N)c2ccccc2)cc1 (configuration not stated) | > 26 µM (inactive)
4 | CC1(C)CC(=O)C(=Cc2cn(-c3ccccc3)nc2-c2ccccc2)C(=O)C1 | 14 µM
5 | COCCCN(CC(=O)O)S(=O)(=O)c1cccc(Cl)c1 | > 26 µM (inactive)
6 | Cc1cc(C(=O)N2CCN(c3ccccn3)CC2)c(C)o1 | > 26 µM (inactive)
7 | Cc1ccc(/C=C2/NC(=O)N(Cc3ccc(Br)cc3)C2=O)o1 | > 26 µM (inactive)
8 | COc1ccc(C)cc1-n1c(=O)c2ccccc2c2ccccc2c1=O | > 26 µM (inactive)
9 | CC(C)=NN1C(=O)c2ccccc2NC1(C)C | > 26 µM (inactive)
10 | O=C(Nc1ccc2c(c1)C(=O)OC2)c1ccc(Cl)cc1 | 12.2 µM
11 | NS(=O)(=O)c1ccc(NC(=O)CN2C(=O)CCC2=O)cc1 | > 26 µM (inactive)
12 | COc1ccc(C2/C=C\CN(S(=O)(=O)/C=C/c3ccccc3)[C@H](Cc3ccccc3)C(=O)N2Cc2ccc(F)cc2)cc1 (some centres not stated) | > 26 µM (inactive)
13 | CC(C)C(=O)N1CCC(n2nccc2NC(=O)CCOc2ccccc2)CC1 | 7.78 µM
14 | O=c1[nH]c2ccc(S(=O)(=O)Nc3ccc(-c4nnc5n4CCCCC5)cc3)cc2o1 | > 26 µM (inactive)
15 | Cc1cc(C)n(CC(O)COc2ccc(Cl)cc2Cl)n1 (configuration not stated) | 5.12 µM
16 | NC(CSCc1cccc(Br)c1)C(=O)O (configuration not stated) | > 26 µM (inactive)
17 | NC(=O)c1cc2cc(Br)ccc2oc1=NCc1ccccc1 | > 26 µM (inactive)
18 | Cc1sc2nc(C)n(/N=C/c3ccc(O)cc3O)c(=O)c2c1C | > 26 µM (inactive)
19 | Cc1ccc(S(=O)(=O)CCN2CCN(c3ccccc3)CC2)cc1 | > 26 µM (inactive)
20 | CCOc1ccc(-n2cc(C(=O)N3CCC(C)CC3)c3cc(OC)c(OC)cc3c2=O)cc1 | 25 µM
21 | Cc1ccc2nc(NCc3ccccc3)c(C=O)c(=O)n2c1 | 11 µM
22 | CN(Cc1ccccc1)C(=O)CCC1CCN(C(=O)CC2=CCCCC2)CC1 | > 26 µM (inactive)

Row | SMILES | AC40
23 | COc1ccc(/C=C\c2nc(=O)c3ccccc3o2)cc1 | > 26 µM (inactive)
24 | C/C(Cn1cnc([N+](=O)[O-])n1)=N\NC(=O)c1ccccc1F | 2.7 µM
25 | COCCCn1c(Cc2csc(Nc3ccc(F)cc3)n2)nnc1SCC(N)=O | > 26 µM (inactive)
26 | C=CCN(C(=O)CCc1ccccc1OC)c1nc(-c2ccc(S(C)(=O)=O)cc2)cs1 | > 26 µM (inactive)
27 | Fc1cc(NCc2ccccc2)nc(NCc2ccccc2)n1 | 9.52 µM
28 | COc1cccc(-c2nnc(SCc3nc4ccccc4[nH]3)n2N)c1 | 18.6 µM
29 | CCN1CC(CN(C)Cc2nc(COc3ccccc3)no2)CC1=O (configuration not stated) | > 26 µM (inactive)
30 | CC(C)(C)c1ccc(COc2ccsc2C(=O)O)cc1 | 4.42 µM
31 | CCC(C)(C)c1ccc(OC(=O)c2cccnc2Cl)cc1 | > 26 µM (inactive)
32 | CC1(C)CC(=O)C2=C(C1)Nc1cc3c(cc1C2c1ccc2c(c1)OCO2)OCO3 (configuration not stated) | 7.45 µM
33 | O=C(NC1CCSc2ccccc21)c1ccccc1Cl (configuration not stated) | 6.46 µM
34 | O=[N+]([O-])c1ccc(S(=O)(=O)N2CCSC2c2ccco2)cc1 (configuration not stated) | > 26 µM (inactive)
35 | COc1ccc(-n2cc(CNCc3cccnc3)c(-c3cccc(F)c3)n2)cc1 | > 26 µM (inactive)
36 | Cc1onc(-c2ccccc2)c1NC(=O)N(CCC#N)Cc1ccccc1 | > 26 µM (inactive)
37 | N#CC(C#N)=C1C=CC=CN1/C(=C\c1ccccc1)C(=O)c1cccs1 | 12.3 µM
38 | Cc1ccc(CN2CCN(CC(C)C)C(CCO)C2)s1 (configuration not stated) | 1.66 µM
39 | CSc1ccc(Cl)c(C(=O)OCC(=O)N(C)CCC#N)c1 | > 26 µM (inactive)
40 | O=C(c1ccc2c(=O)n(C3CCCC3)c(=S)[nH]c2c1)N1CCc2ccccc21 | > 26 µM (inactive)
41 | CC1(C)CC(=O)C(C=Nc2cccnc2)=C(O)C1 | > 26 µM (inactive)
42 | O=C(NC1C(=O)NNC1c1ccccc1)c1ccccc1 (configuration not stated) | 6.88 µM
43 | CC(=O)N1N=C(c2ccccc2)CC1c1ccccc1[N+](=O)[O-] (configuration not stated) | 16 µM
44 | C/C(=N\NC(=O)c1cccc(N/N=C(\C)c2cc(O)ccc2O)c1)c1cc(O)ccc1O | > 12 µM (inactive)

Row | SMILES | AC40
45 | CC(=O)Nc1ccc(N/C=C/C(=O)C(C)(C)C)cc1 | > 26 µM (inactive)
46 | COc1ccc(NC(=S)Nc2ccccc2SC)c(OC)c1 | 24.2 µM
47 | COc1cc2nc(CSc3nc(-c4ccc(F)cc4)cs3)[nH]c(=O)c2cc1OC | > 26 µM (inactive)
48 | O=C1NCC2=C1C(c1ccc(Br)cc1)Nc1ccccc1N2 (configuration not stated) | 3.58 µM
49 | O=c1[nH]n(CC2COC3(CCCCC3)O2)c(=O)c2ccccc12 (configuration not stated) | 5.22 µM
50 | CCOC(=O)CN1C=C(c2ccc3ccccc3n2)C(C[N+](=O)[O-])c2ccccc21 (configuration not stated) | 3.31 µM
51 | NC(=O)c1nn(-c2ccccc2)nc1NC(=O)CN1CCCCC1 | > 26 µM (inactive)
52 | C=CCNC(=S)N/N=C/c1ccc(-c2ccc(Br)cc2)o1 | 22 µM
53 | Cc1onc(-c2ccccc2)c1C(=O)N=C(N)c1ccc(C(F)(F)F)cc1 | > 26 µM (inactive)
54 | C(=N\N1CCN(Cc2cccc3ccccc23)CC1)/c1cccnc1 | > 26 µM (inactive)
55 | NC(=O)CCN1CCN(CCOC2Cc3cc(Cl)ccc3Sc3ccccc32)CC1 (configuration not stated) | > 26 µM (inactive)
56 | Cc1ccccc1NC(=O)C1CCCN(C(=O)NCc2ccccc2)C1 (configuration not stated) | > 26 µM (inactive)
57 | CN(C)c1nc(N)nc(CSc2nnnn2-c2ccc(F)cc2)n1 | > 26 µM (inactive)
58 | NC(N)=NS(=O)(=O)c1ccc(NC(=S)NC(=O)c2ccc(Br)cc2)cc1 | 17.5 µM
59 | CCCCCNC(=O)C1CCC(Cn2c(=S)[nH]c3ccccc3c2=O)CC1 (configuration not stated) | > 26 µM (inactive)
60 | COCOc1cc(O)c(C(=O)/C=C/c2ccccc2)c(OCOC)c1 | 7.9 µM
61 | O=C(O)CSc1c(-c2ccccc2)[nH]c2ccccc12 | > 26 µM (inactive)
62 | Cc1ccccc1CSc1nsc(N)n1 | 16.5 µM
63 | O=c1[nH]c2c(s1)C=Nc1ccccc1N2 | 4.98 µM
64 | CC(C)NCC(O)COCc1ccc(Cl)cc1 (configuration not stated) | > 26 µM (inactive)
65 | COc1ccc(C2C(C(C)=O)=C(O)C(=O)N2c2ccc(C)cc2)cc1 (configuration not stated) | > 26 µM (inactive)
66 | C=CCn1c(-c2cc(-c3ccccc3)sc2N)n[nH]c1=S | 12.3 µM

Row | SMILES | AC40
67 | CC(=O)c1ccc(NC(=S)N2C(C)CCCC2C)cc1 (configuration not stated) | 20.8 µM
68 | CCN(CCCNC(=O)CNC(=O)c1nn(-c2ccc(OC)cc2OC)c(=O)c2ccccc12)c1cccc(C)c1 | > 26 µM (inactive)
69 | Nc1nnc(SCC(=O)Nc2cccc3ccccc23)s1 | > 26 µM (inactive)
70 | c1ccc(SCCOCCN2CCOCC2)cc1 | > 26 µM (inactive)
71 | CC1=Nc2ccccc2/C1=C/c1nc(-c2ccc(C)s2)oc1O | 10.1 µM
72 | CCOC(=O)/C(=N/Nc1ccc(Cl)cc1)Sc1nnnn1-c1ccc(C)cc1 | > 12 µM (inactive)
73 | COc1ccc(/C=C/C(=O)N(C(C)C)C(C)C)cc1Br | 6.82 µM
74 | CC1CC(C)(C)N(C(=O)NC2CCCCC2)c2ccccc21 (configuration not stated) | 12.9 µM
75 | Nc1c(-c2ccsc2)cnc2ncnn12 | > 26 µM (inactive)
76 | ClC(Cl)c1nnc(-c2ccccc2)c(-c2c[nH]c3ccccc23)n1 | > 26 µM (inactive)
77 | COc1cccc(NC(=S)NC(=O)c2c(Cl)c(C)nn2C)c1 | 2.51 µM
78 | CN(c1ccccc1)c1nc(N)c([N+](=O)[O-])c(N2CCCCCC2)n1 | > 26 µM (inactive)
79 | O=C(CCCC1=NS(=O)(=O)c2ccccc2N1)N1CCN(c2ccccc2)CC1 | > 26 µM (inactive)
80 | COc1ccc(C2CC(=O)c3cnc(N4CCc5ccccc54)nc3C2)cc1OC (configuration not stated) | > 26 µM (inactive)
81 | O=C(CSc1cccc2cccnc12)N/N=C/c1cccnc1 | > 26 µM (inactive)
82 | CCOC(=O)c1cc(C#N)c(SCc2ccc(C#N)cc2)nc1C | > 26 µM (inactive)
83 | S=c1[nH]nc(-c2ccccc2)n1/N=C/c1ccc(-c2ccccc2Cl)o1 | > 12 µM (inactive)
84 | Cc1cc(-c2nc3ncccc3o2)ccc1NC(=S)NC(=O)C(C)C | 7.32 µM
85 | CN(C)CCCn1c(N)c(C#N)c2nc(C#N)c(C#N)nc21 | > 12 µM (inactive)
86 | COc1ccc(-c2coc3cc4oc(=O)c(CC(=O)O)c(C)c4cc23)cc1 | > 26 µM (inactive)
87 | Fc1ccccc1-c1nc2nc3ccccc3nc2n1CC1CCCO1 (configuration not stated) | 21.8 µM
88 | Cc1nc2scc(-c3ccc(Cl)cc3)c2c(=O)n1N | > 26 µM (inactive)

Row | SMILES | AC40
89 | CC(=O)Oc1ccc(Cn2cnc3cc4ccccc4cc32)cc1 | 14.7 µM
90 | O=C(CN1C(=O)/C(=C\c2cccc(Cl)c2)Sc2ccccc21)NCCCN1CCOCC1 | > 12 µM (inactive)
91 | Cc1cc2oc3c(c(=O)c2cc1C)C(c1ccc(C(C)C)cc1)N(CCCN1CCOCC1)C3=O (configuration not stated) | > 26 µM (inactive)
92 | COC(=O)c1ccc(C(=O)OC)c(NC(=O)C(C)(C)C)c1 | > 26 µM (inactive)
93 | c1ccc2c3c([nH]c2c1)CCNC3 | > 26 µM (inactive)
94 | Cc1nc2ncnn2c(C)c1CCC(=O)NCc1ccco1 | > 26 µM (inactive)
95 | COc1ccc(-n2cnnc2SCC(=O)N(C)C2CCS(=O)(=O)C2)cc1 (configuration not stated) | > 26 µM (inactive)
96 | CN(CCC1CCCCO1)C(=O)CCc1nnc(CCCCc2ccccc2)o1 (configuration not stated) | 5.66 µM
97 | COc1ccc(/C=C2/SC(=O)N(CCNC(=O)C3COc4ccccc4O3)C2=O)cc1 (configuration not stated) | 5.69 µM
98 | CCSc1nnc(NC(=O)c2cccnc2Cl)s1 | 6.92 µM
99 | Cc1cc(-c2ccc(C(C)C)c(S(=O)(=O)NCCN3CCC(C)CC3)c2)on1 | > 26 µM (inactive)
100 | COc1ccccc1/C=C1/SC(=S)N(C(C)C(=O)NC2C=CS(=O)(=O)C2)C1=O (configuration not stated) | > 26 µM (inactive)
101 | O=C(NC(CO)(CO)CO)c1coc(=O)c(Br)c1 | > 26 µM (inactive)
102 | CCOC(=O)C1CCN(C(=O)c2ccc3c(Cl)c4c(nc3c2)CCCC4)CC1 | > 26 µM (inactive)
103 | COc1ccc(CCNc2oc(-c3ccccc3OC)nc2C#N)cc1 | > 26 µM (inactive)
104 | CC(=O)NC(=O)NC1OC(=O)C(Cl)=C1Cl (configuration not stated) | > 26 µM (inactive)
105 | COc1ccc(OCc2nnnn2-c2ccccc2)cc1 | 25.7 µM
106 | CCOc1ccc(CN(C)C(=O)CNC(=O)c2ccc3ccccc3c2)cc1OC | > 26 µM (inactive)
107 | COc1ccc(C)cc1Cn1c(S(C)(=O)=O)nc2ccccc21 | > 26 µM (inactive)

From PubChem BioAssay AID602296 (Broad Institute, 2012)
